The source of these data is the SangsterLogP compilation.

This data set can be described thus: method code SF-AS, from DOI: 10.1016/0009-2797(77)90026-6.

The logP is a log measure of how a compound divides between an organic and an aqueous phase. A higher logP goes with higher lipophilicity.

Compound `O=NN1CCC(c2ccccc2)CC1` registered a logP of 2.59.

`CCN(CC)C(=O)N(C)N=O` came in with a logP of 1.11.

In turn, `O=NN1CCCCC1` returned a logP of 0.63.

Turning to `O=NN1CCCN(N=O)CC1`, the lipophilicity (logP) was -0.51.

Regarding `N#CCN(CC#N)N=O`, the lipophilicity (logP) came out at 0.04.

Consider `O=NN1CCSCC1`, for which the logP stood at 0.4.

Compound `CCOCCN(CCOCC)N=O` registered a logP of 0.79.

The compound `O=NN(CC(F)(F)F)CC(F)(F)F` yielded a logP of 2.15.

Take `O=NN1CCCCCC1`: the log partition coefficient (logP) amounted to 0.92.

With `COCCN(CCOC)N=O`, the logP was -0.38.

The compound `CN(C)C(=O)N(C)N=O` came in with a logP of 0.36.

Turning to `CCCCCCCCCCCCN(C)N=O`, the logP was 2.18.

`O=NN1CCNCC1` returned a logP of 0.18.

On to `CC1CN(N=O)CC(C)N1N=O` (configuration not stated), for which the logP was found to be 0.08.

Turning to `CC1CCC(C)N1N=O` (configuration not stated), the logP came out at 0.86.

As to `CC1CN(N=O)CC(C)N1` (configuration not stated), the logP came out at 0.73.

Compound `CCN(CC)C(=O)N(CC)N=O` displayed a logP of 1.54.

As for `O=NN1CCC(=O)CC1`, the logP is -0.47.

Compound `CN(N=O)C1CCCCC1` showed a logP of 1.43.

`O=NN1CCCC1`: the lipophilicity (logP) is -0.19.

As for `CC1CCCCN1N=O` (configuration not stated), the lipophilicity (logP) is 0.71.

Regarding `CN1CCN(N=O)CC1`, the logP came out at 0.2.

Compound `CC1CN(N=O)CC(C)N1C(=O)c1ccccc1` (configuration not stated) registered a logP of 1.41.

As for `O=NN1CCC(O)CC1`, the log partition coefficient (logP) is -0.89.

Take `O=NN1CCC(Cl)C(Cl)C1` (configuration not stated): the logP came to 1.04.

The compound `O=NN1CC=CCC1` came in with a logP of 1.18.

For `CN(CC(C)(C)C)N=O`, the log partition coefficient (logP) is 1.34.

Take `CC1CCN(N=O)CC1`: the logP worked out at 1.05.

In turn, `CC1CN(N=O)C(C)CN1N=O` (configuration not stated) registered a logP of 0.15.

Turning to `CC(C)(C)C1CCN(N=O)CC1`, the logP came to 2.54.

`CC1CN(N=O)CC(C)O1` (configuration not stated) showed a logP of 0.32.

`CC1CCCC(C)N1N=O` (configuration not stated) displayed a logP of 1.36.

With `O=NN1CCCCCCC1`, the logP was found to be 1.48.

`CC1CN(C(=O)c2ccccc2)CC(C)N1N=O` (configuration not stated): the logP was determined as 1.04.

`CC1(C)CCCC(C)(C)N1N=O` had a logP of 2.49.

Regarding `CC1CN(N=O)CCN1N=O` (configuration not stated), the logP was -0.28.

In turn, `CC1C(c2ccccc2)OCCN1N=O` (configuration not stated) returned a logP of 2.09.

In turn, `CC1CC(C)CN(N=O)C1` (configuration not stated) gave a lipophilicity (logP) of 1.53.

Regarding `N#CCCN(CCC#N)N=O`, the logP is 0.08.

With `CC1CCCN(N=O)C1` (configuration not stated), the log partition coefficient (logP) stood at 0.99.

The compound `O=NN1CC=CC1` gave a log partition coefficient (logP) of 0.26.

For `CC1C(C)N(N=O)C(C)C(C)N1N=O` (configuration not stated), the logP is 0.91.

On to `O=NN1CCCC(O)C1` (configuration not stated), for which the logP is -0.47.

Compound `O=NN1CCC(Br)C(Br)C1` (configuration not stated) returned a logP of 1.23.

In turn, `O=NN1CCCCCCCC1` came in with a logP of 2.04.

For `O=NN1CCN(N=O)CC1`, the log partition coefficient (logP) is -0.85.

For `CCN(N=O)C(=O)N(C)C`, the log partition coefficient (logP) was found to be 0.71.
